Experiments:
KRAS G12D = KRAS G12D (Homo sapiens, UniProt P01116, G12D); experiment: GDP-GTP exchange assay (bodipy-GDP/GppNHp, SOS1), KRAS G12D; format: biochemical; conditions: bodipy-loaded KRAS G12D 2.5 nM, 4 hours pre-incubation with inhibitor, 2 hours after GppNHp/SOS1; read-out: G12D_exchange IC50
Experimental: (§1) The inhibitor potency of the exemplified compounds was determined in a fluorescence based guanine nucleotide exchange assay, which measures the exchange of bodipy-GDP (fluorescently labeled GDP) for GppNHp (Non-hydrolyzable GTP analog) to generate the active state of KRAS in the presence of SOS1 (guanine nucleotide exchange factor). Inhibitors were serially diluted in DMSO and a volume of 0.1 μL was transferred to the wells of a black low volume 384-well plate. 5 μL/well volume of bodipy-loaded KRAS G12D diluted to 2.5 nM in assay buffer (25 mM Hepes pH 7.5, 50 mM NaCl, 10 mM MgCl2 and 0.01% Brij-35) was added to the plate and pre-incubated with inhibitor for 4 hours at ambient temperature. Appropriate controls (enzyme with no inhibitor or with a G12D inhibitor) were included on the plate. The exchange was initiated by the addition of a 5 μL/well volume containing 1 mM GppNHp and 300 nM SOS1 in assay buffer. The 10 μL/well reaction concentration of the bodipy-loaded KRAS G12D, GppNHp, and SOS1 were 2.5 nM, 500 uM, and 150 nM, respectively. The reaction plates were incubated at ambient temperature for 2 hours, a time estimated for complete GDP-GTP exchange in the absence of inhibitor. For the KRAS G12V mutant, similar guanine nucleotide exchange assays were used with 2.5 nM as final concentration for the bodipy loaded KRAS proteins and 3 hours incubation after adding GppNHp-SOS1 mixture. A cyclic peptide described to selectively bind G12D mutant (Sakamoto et al., BBRC 484.3 (2017), 605-611) or internal compounds with confirmed binding were used as positive controls in the assay plates. Fluorescence intensities were measured on a PheraStar plate reader instrument (BMG Labtech) with excitation at 485 nm and emission at 520 nm.
(§2) Either GraphPad prism or Genedata Screener SmartFit was used to analyze the data. The IC50 values were derived by fitting the data to a four parameter logistic equation producing a sigmoidal dose-response curve with a variable Hill coefficient.
(§3) The symbol “†” indicates IC50≤100 nM, “††” indicates IC50>100 nM but ≤1 μM; and “†††” indicates IC50 is >1 μM but ≤5 μM, “††††” indicates IC50 is >5 μM but ≤10 μM. “NA” indicates IC50 not available.

KRAS G12V = KRAS G12V (Homo sapiens, UniProt P01116, G12V); experiment: GDP-GTP exchange assay (bodipy-GDP/GppNHp, SOS1), KRAS G12V; format: biochemical; conditions: bodipy-loaded KRAS G12V 2.5 nM, 3 hours incubation after adding GppNHp-SOS1; read-out: G12V_exchange IC50
Experimental: as §1, §2, §3

Sequence of KRAS G12D (P01116 1-188 isoform P01116-2 G12D): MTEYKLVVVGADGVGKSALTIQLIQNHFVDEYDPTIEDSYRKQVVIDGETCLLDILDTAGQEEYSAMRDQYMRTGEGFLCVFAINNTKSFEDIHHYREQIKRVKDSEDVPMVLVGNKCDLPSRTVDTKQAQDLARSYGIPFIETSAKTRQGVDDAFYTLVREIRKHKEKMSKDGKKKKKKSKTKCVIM
Sequence of KRAS G12V (P01116 1-188 isoform P01116-2 G12V): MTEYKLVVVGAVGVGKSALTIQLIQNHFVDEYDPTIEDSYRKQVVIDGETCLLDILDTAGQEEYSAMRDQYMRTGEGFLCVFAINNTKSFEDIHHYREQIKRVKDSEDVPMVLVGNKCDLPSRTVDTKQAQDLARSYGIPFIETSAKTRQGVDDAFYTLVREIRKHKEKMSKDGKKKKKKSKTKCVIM

| Compound | IC50 (KRAS G12D) | IC50 (KRAS G12V) |
| --- | --- | --- |
| CNCCc1nc2c(N3CC(N(C)C)C3)nc3c(F)c(-c4cc(O)cc5ccccc45)c(Cc4ccc(C#N)cc4)cc3c2n1[C@@H]1[C@@H]2CN[C@H]1C2 (relative stereo) [Example 29, 4-((1-((endo)-2-azabicyclo[2.1.1]hexan-5-yl)-4-(3-(dimethylamino)azetidin-1-yl)-6-fluoro-7-(3-hydroxynaphthalen-1-yl)-2-(2-(methylamino)ethyl)-1H-imidazo[4,5-c]quinolin-8-yl)methyl)benzonitrile] | 100 to 1000 nM | 5000 to 10000 nM |
| CN(C)C(=O)CCc1nc2c(N3CC(N(C)C)C3)nc3c(F)c(-c4c(O)ccc(Cl)c4Cl)c(CCC#N)cc3c2n1C1C2CNC1C2 (centres unmarked) [Example 10, 3-(1-(2-azabicyclo[2.1.1]hexan-5-yl)-8-(2-cyanoethyl)-7-(2,3-dichloro-6-hydroxyphenyl)-4-(3-(dimethylamino)azetidin-1-yl)-6-fluoro-1H-imidazo[4,5-c]quinolin-2-yl)-N,N-dimethylpropanamide] | ≤ 100 nM | 100 to 1000 nM |
| CN(C)C(=O)CCc1nc2c(N3CC(N(C)C)C3)nc3c(F)c(-c4nc(N)ccc4C(F)(F)F)c(CCC#N)cc3c2n1C1C2CNC1C2 (single isomer, unassigned) [Example 32a, 3-(7-(6-amino-3-(trifluoromethyl)pyridin-2-yl)-1-endo-(2-azabicyclo[2.1.1]hexan-5-yl)-8-(2-cyanoethyl)-4-(3-(dimethylamino)azetidin-1-yl)-6-fluoro-1H-imidazo[4,5-c]quinolin-2-yl)-N,N-dimethylpropanamide] | 100 to 1000 nM | 5000 to 10000 nM |
| CN(C)C(=O)CCc1nc2c(N3CC(N(C)C)C3)nc3c(F)c(-c4nc(N)cc5ccccc45)c(CCC#N)cc3c2n1C1C2CNC1C2 (single isomer, unassigned) [Example 31a, 3-(7-(3-aminoisoquinolin-1-yl)-1-endo-(2-azabicyclo[2.1.1]hexan-5-yl)-8-(2-cyanoethyl)-4-(3-(dimethylamino)azetidin-1-yl)-6-fluoro-1H-imidazo[4,5-c]quinolin-2-yl)-N,N-dimethylpropanamide] | 100 to 1000 nM | 5000 to 10000 nM |
| CCc1nc2c(OC[C@@]34CCCN3C[C@H](F)C4)nc3c(F)c(-c4c[nH]c5ccc(C)cc45)c(CCC#N)cc3c2n1C1C2CNC1C2 (stereo partly drawn) [Example 28, 3-(1-(2-azabicyclo[2.1.1]hexan-5-yl)-2-ethyl-6-fluoro-4-(((2R,7aS)-2-fluorotetrahydro-1H-pyrrolizin-7a(5H)-yl)methoxy)-7-(5-methyl-1H-indol-3-yl)-1H-imidazo[4,5-c]quinolin-8-yl)propanenitrile] | ≤ 100 nM | 100 to 1000 nM |
| CCc1nc2c(-c3ccc(C(=O)NC)nc3)nc3c(F)c(-c4cc(O)cc5ccccc45)c(CCC#N)cc3c2n1C1C2CNC1C2 (single isomer, unassigned) [Example 19a, 5-(1-((endo)-2-Azabicyclo[2.1.1]hexan-5-yl)-8-(2-cyanoethyl)-2-ethyl-6-fluoro-7-(3-hydroxynaphthalen-1-yl)-1H-imidazo[4,5-c]quinolin-4-yl)-N-methylpicolinamide] | ≤ 100 nM | ≤ 100 nM |
| CN(C)C1CN(c2nc3c(F)c(-c4cc(O)cc5ccccc45)c(CCC#N)cc3c3c2nc(-c2ccc4[nH]ncc4c2)n3C2C3CNC2C3)C1 (single isomer, unassigned) [Example 38a] | 100 to 1000 nM | ≤ 100 nM |
| CCc1nc2c(Oc3ccccc3)nc3c(F)c(-c4cc(O)cc5ccccc45)c(CCC#N)cc3c2n1C1C2CNC1C2 (single isomer, unassigned) [Example 24a, 3-(1-((endo)-2-Azabicyclo[2.1.1]hexan-5-yl)-2-ethyl-6-fluoro-7-(3-hydroxynaphthalen-1-yl)-4-phenoxy-1H-imidazo[4,5-c]quinolin-8-yl)propanenitrile] | ≤ 100 nM | 100 to 1000 nM |
| CN(C)C(=O)CCc1nc2c(N3CC(N(C)C)C3)nc3c(F)c(-c4cc(O)cc5ccccc45)cc(CO)c3c2n1[C@@H]1[C@@H]2CN[C@H]1C2 (relative stereo) [Example 15, 3-(1-((endo)2-azabicyclo[2.1.1]hexan-5-yl)-4-(3-(dimethylamino)azetidin-1-yl)-6-fluoro-9-(hydroxymethyl)-7-(3-hydroxynaphthalen-1-yl)-1H-imidazo[4,5-c]quinolin-2-yl)-N,N-dimethylpropanamide] | ≤ 100 nM | 1000 to 5000 nM |
| Cc1cc2c(nc(N3CC(N(C)C)C3)c3nc(CCC(=O)N4CCN(c5ncccn5)CC4)n(C4C5CNC4C5)c32)c(F)c1-c1cc(O)cc2ccccc12 (single isomer, unassigned) [Example 2a, 3-(1-((endo)-2-azabicyclo[2.1.1]hexan-5-yl)-4-(3-(dimethylamino)azetidin-1-yl)-6-fluoro-7-(3-hydroxynaphthalen-1-yl)-8-methyl-1H-imidazo[4,5-c]quinolin-2-yl)-1-(4-(pyrimidin-2-yl)piperazin-1-yl)propan-1-one] | ≤ 100 nM | 1000 to 5000 nM |
| CCc1nc2c(N3CC(N(C)C)C3)nc3c(F)c(-c4cc(O)cc5ccccc45)c(C(CC#N)n4cc(CO)cn4)cc3c2n1C1C2CNC1C2 (single isomer, unassigned) [Example 8b, 3-(1-((endo)-2-azabicyclo[2.1.1]hexan-5-yl)-4-(3-(dimethylamino)azetidin-1-yl)-2-ethyl-6-fluoro-7-(3-hydroxynaphthalen-1-yl)-1H-imidazo[4,5-c]quinolin-8-yl)-3-(4-(hydroxymethyl)-1H-pyrazol-1-yl)propanenitrile] | ≤ 100 nM | 100 to 1000 nM |
| CCc1nc2c(-c3ccnc(N4CCN(C)CC4)c3)nc3c(F)c(-c4cc(O)cc5ccccc45)c(CCC#N)cc3c2n1C1C2CNC1C2 (single isomer, unassigned) [Example 22a, 3-(1-((endo)-2-Azabicyclo[2.1.1]hexan-5-yl)-2-ethyl-6-fluoro-7-(3-hydroxynaphthalen-1-yl)-4-(2-(4-methylpiperazin-1-yl)pyridin-4-yl)-1H-imidazo[4,5-c]quinolin-8-yl)propanenitrile] | ≤ 100 nM | 100 to 1000 nM |
| C[C@H](Oc1nc2c(F)c(-c3cccc4cccc(C#N)c34)c(Cl)cc2c2c1ncn2[C@H]1CCN(C(=O)C2CC2)[C@H](CC#N)C1)[C@@H]1CCCN1C [Example 43, 8-(8-chloro-1-((2S,4S)-2-(cyanomethyl)-1-(cyclopropanecarbonyl)piperidin-4-yl)-6-fluoro-4-((S)-1-((S)-1-methylpyrrolidin-2-yl)ethoxy)-1H-imidazo[4,5-c]quinolin-7-yl)-1-naphthonitrile] | ≤ 100 nM | 100 to 1000 nM |
| CN(C)C1CN(c2nc3c(F)c(-c4cc(O)cc5ccccc45)c(CCC#N)cc3c3c2nc(-c2ccn(Cc4ccccc4)n2)n3C2C3CNC2C3)C1 (single isomer, unassigned) [Example 36a, 3-(2-(1-benzyl-1H-pyrazol-3-yl)-1-((endo)-2-azabicyclo[2.1.1]hexan-5-yl)-4-(3-(dimethylamino)azetidin-1-yl)-6-fluoro-7-(3-hydroxynaphthalen-1-yl)-1H-imidazo[4,5-c]quinolin-8-yl)propanenitrile] | 100 to 1000 nM | ≤ 100 nM |
| CC(=O)N1CC[C@H](n2c(=O)[nH]c3c(O[C@@H](C)[C@@H]4CCCN4C)nc4c(F)c(-c5cccc6cccc(C#N)c56)c(Cl)cc4c32)C[C@H]1CC#N [Example 45, 8-(1-((2S,4S)-1-acetyl-2-(cyanomethyl)piperidin-4-yl)-8-chloro-6-fluoro-4-((S)-1-((S)-1-methylpyrrolidin-2-yl)ethoxy)-2-oxo-2,3-dihydro-1H-imidazo[4,5-c]quinolin-7-yl)-1-naphthonitrile] | 100 to 1000 nM | ≤ 100 nM |
| CCc1nc2c(-c3ccc(=O)n(CC)c3)nc3c(F)c(-c4cc(O)cc5ccccc45)c(CCC#N)cc3c2n1C1C2CNC1C2 (single isomer, unassigned) [Example 18, 3-(1-((endo)-2-Azabicyclo[2.1.1]hexan-5-yl)-2-ethyl-4-(1-ethyl-6-oxo-1,6-dihydropyridin-3-yl)-6-fluoro-7-(3-hydroxynaphthalen-1-yl)-1H-imidazo[4,5-c]quinolin-8-yl)propanenitrile] | ≤ 100 nM | ≤ 100 nM |

Source: patent publication US12600717B2, “Tricyclic compounds as inhibitors of KRAS” (Incyte Corporation, priority 2021, dated 2026)
